Test results from patent EP2650284A1, “Heterocyclic derivatives as metabotropic glutamate receptor modulators” (Merz Pharma GmbH & Co. KGaA, priority 2012, dated 2013).

Target: T1, mGluR5 binding site (Rattus norvegicus, UniProt P31424)
T1 construct: from tissue; host or cells: cortex of adult male Sprague-Dawley rats, membrane preparation
Experiment: [3H]-M-MPEP displacement studies on rat cortical membranes
Details: Table A3, [3H]-M-MPEP 2 nM, 4°C for 1 h, median, read-out: Ki (MMPEP)
Protocol: Tissue preparation is performed according to Foster & Wong (Br. J. Pharmacol., 1987, 91, 403-409) with some modifications. Anaesthetised male Sprague-Dawley rats (200-250 g, Janvier, Le Genest-Isle, France) are decapitated and their brains are removed rapidly. The cortex is dissected out and processed as described by Parsons, et al. (J. Pharmacol. Exp. Ther., 1997, 283(3): 1264-1275). For isolation of the cell membranes, the cortices are homogenized in 20 volumes of ice-cold 0.32 M sucrose (Sigma-Aldrich, Taufkirchen, Germany) using a glass-Teflon homogenizer. The homogenate is centrifuged at 1000 x g for 10 minutes, the pellet is discarded and the supernatant centrifuged at 20,000 x g for 20 minutes. The resulting pellet is resuspended in 20 volumes of distilled water and centrifuged for 20 minutes at 8000 x g. The supernatant and the buffy coat are then centrifuged six times (48,000 x g for 20 minutes) in the presence of 5 mM Tris-HCl, pH 7.5. All centrifugation steps are carried out at 4°C. After resuspension in 5 volumes of 5 mM Tris-HCl, pH 7.5, the membrane suspension is frozen rapidly at -80°C.
On the day of assay, the membrane suspensions are thawed, centrifuged (48,000 x g for 20 minutes) and then resuspended in 50 mM Tris-HCl, pH 7.5 (assay buffer). The amount of protein in the final membrane preparation is determined according to the method of Lowry, et al. (J. Biol. Chem., 1951, 193, 256-275). The final concentration used for our studies is 400 µg / ml.
The Tecan robotic system designed for binding assays is loaded with the membrane solution, a 96 well stock plate containing the solutions for bound control (buffer/DMSO 10%), unlabeled MPEP (10 µM) for evaluation of non-specific binding, all compounds to be tested (at 20-fold concentrations), various empty 96-well plates for dilutions and the final assay plates, as well as a 96-well plate filled with the radioligand.
Before performing displacement studies, saturation experiments are performed to determine the equilibrium dissociation constant (Kd, Cheng and Prussoff, Biochem. Pharmacol., 1973, 22: 3099-3108) of [^3H]-M-MPEP, which is a parameter for the affinity of the radioligand to the binding site. On the basis of the saturation experiments, a final [^3H]-M-MPEP concentration of 2 nM was selected.
Firstly, the assay plates are loaded with membrane solution and are shaken at 4°C. The mother plates were then prepared by pipetting the compounds (n = 5) into assay buffer/10% DMSO to obtain the desired final concentrations. After transferring radioligand into the assay plates, the compounds are added (including the non-specific binding control containing MPEP). The final DMSO concentration is always 1 %. The assay plates are incubated and shaken at 4°C for 1 h, before the mixture is exhausted as rapidly as possible via a vacuum manifold using the Multiscreen HTS glass fibre (type B) high flow filter plates (Millipore, Schwalbach, Germany) under a constant vacuum of 450 mbar. The membranes are washed four times with cold assay buffer (100 µL). 50 µL of Ultima Gold scintillation cocktail (PerkinElmer) is added to the wet filter plates and incubated at rt overnight before counting the disintegration per minutes using a liquid scintillation counter (MicroBeta, PerkinElmer).
For the evaluation of the test compound binding affinity to the mGluR5 binding site and its potency to displace [^3H]-M-MPEP, the measured radioactivity of the radioligand alone was set as 100% bound control and the non-specific binding of the radioligand represented the 0% control. The residual radioactivity after displacement of the test compound was then corrected with respect to the set controls. Data are given as median IC50 and Ki, respectively.

T1 sequence (P31424 21-1203): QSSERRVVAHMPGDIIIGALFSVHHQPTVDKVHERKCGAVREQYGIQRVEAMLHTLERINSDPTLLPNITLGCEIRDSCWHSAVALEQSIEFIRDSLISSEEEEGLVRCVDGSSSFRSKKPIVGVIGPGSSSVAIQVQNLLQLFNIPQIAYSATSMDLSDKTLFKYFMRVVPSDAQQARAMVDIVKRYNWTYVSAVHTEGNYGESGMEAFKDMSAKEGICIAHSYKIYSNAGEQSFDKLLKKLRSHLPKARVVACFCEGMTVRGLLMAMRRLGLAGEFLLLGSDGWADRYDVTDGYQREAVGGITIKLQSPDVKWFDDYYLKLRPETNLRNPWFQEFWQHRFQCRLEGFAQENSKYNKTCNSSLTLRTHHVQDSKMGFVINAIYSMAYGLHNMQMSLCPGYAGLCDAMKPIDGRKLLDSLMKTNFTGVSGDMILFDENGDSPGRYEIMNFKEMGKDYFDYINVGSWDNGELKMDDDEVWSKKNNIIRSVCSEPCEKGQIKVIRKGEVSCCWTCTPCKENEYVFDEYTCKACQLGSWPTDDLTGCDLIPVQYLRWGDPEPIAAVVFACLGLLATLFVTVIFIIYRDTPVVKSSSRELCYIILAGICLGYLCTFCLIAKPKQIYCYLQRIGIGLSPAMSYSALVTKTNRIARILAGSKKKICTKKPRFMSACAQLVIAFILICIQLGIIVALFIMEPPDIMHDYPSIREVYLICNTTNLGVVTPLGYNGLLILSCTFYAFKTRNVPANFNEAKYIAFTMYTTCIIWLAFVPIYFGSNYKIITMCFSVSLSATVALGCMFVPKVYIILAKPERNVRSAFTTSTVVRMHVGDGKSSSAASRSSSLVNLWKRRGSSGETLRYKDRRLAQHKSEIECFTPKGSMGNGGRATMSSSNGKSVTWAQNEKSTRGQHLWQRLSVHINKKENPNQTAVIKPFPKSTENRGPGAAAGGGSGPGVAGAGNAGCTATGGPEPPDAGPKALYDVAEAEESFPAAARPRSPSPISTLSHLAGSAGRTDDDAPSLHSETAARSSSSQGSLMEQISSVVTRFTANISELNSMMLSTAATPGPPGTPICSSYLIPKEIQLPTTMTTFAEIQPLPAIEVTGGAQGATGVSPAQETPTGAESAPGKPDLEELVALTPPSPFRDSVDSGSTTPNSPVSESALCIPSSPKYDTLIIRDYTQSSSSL

Question: `CCCN1CCO[C@@H]2c3cc(C#Cc4cccc(C)c4)cnc3CC[C@@H]21` (racemic) [Example 21, (rac)-cis-4-Propyl-9-(m-tolylethynyl)-3,4,4a,5,6,10b-hexahydro-2H-[1,4]oxazino[2,3-f]quinoline] was tested. Which Ki did it give?
Answer: Its Ki is 1720 nM.

Question: Which Ki does the source give for `COC(=O)N1CC[C@H]2CCc3ncc(C#Cc4ccccc4)cc3[C@H]21` (racemic) [Example 29, (rac)-cis-Methyl 8-(phenylethynyl)-2,3,3a,4,5,9b-hexahydro-1H-pyrrolo[2,3-f]quinoline-1-carboxylate] here?
Answer: Its Ki is 289 nM.

Question: For `CCCN1CC2(CCCc3ncc(C#Cc4cccc(C)c4)cc32)OC1=O` (racemic) [Example 64, (rac)-3-Propyl-3'-(m-tolylethynyl)-7',8'-dihydro-6'H-spiro[oxazolidine-5,5'-quinolin]-2-one], which Ki is on record?
Answer: The Ki was 399 nM.

Question: Which Ki does the source give for `CCCN1CC2(CCCc3ncc(C#Cc4cccc(F)c4)cc32)OC1=O` (racemic) [Example 66, (rac)-3'-((3-Fluorophenyl)ethynyl)-3-propyl-7',8'-dihydro-6'H-spiro[oxazolidine-5,5'-quinolin]-2-one] here?
Answer: The Ki was 857 nM.

Question: `COC1CCCc2ncc(C#Cc3ccccc3)cc21` (single isomer, unassigned) [Example 2, 5-Methoxy-3-(phenylethynyl)-5,6,7,8-tetrahydroquinoline] was tested. Which Ki did it give?
Answer: The Ki was 204 nM.

Question: Which Ki does the source give for `CCCN1CCO[C@@H]2c3cc(C#Cc4ccccc4)cnc3CC[C@@H]21` (single isomer, unassigned) [Example 17, cis-9-(Phenylethynyl)-4-propyl-3,4,4a,5,6,10b-hexahydro-2H-[1,4]oxazino[2,3-f]quinoline] here?
Answer: Its Ki is 3620 nM.

Question: Which Ki does the source give for `CC(C)C(=O)N1CCc2ncc(C#Cc3ccccc3)cc2C1` [Example 33, 2-Methyl-1-(3-(phenylethynyl)-7,8-dihydro-1,6-naphthyridin-6(5H)-yl)propan-1-one] here?
Answer: The Ki was 395 nM.

Question: Which Ki does the source give for `CCOC(=O)N1CCc2ncc(C#Cc3ccccc3)cc2C1` [Example 40, Ethyl 3-(phenylethynyl)-7,8-dihydro-1,6-naphthyridine-6(5H)-carboxylate] here?
Answer: The Ki was 56.5 nM.
